Measured values reported in US20170368148A1, “USES OF A PTHrP ANALOGUE IN REDUCING FRACTURE RISK” (RADIUS HEALTH, INC., priority 2015, published 2017).
Marks after values point to notes of the source that are not given here.

Columns and labels:
[1] = test system: postmenopausal women with osteoporosis; assay: ACTIVE trial: BMD by DXA; type: in vivo, human; settings: for Mean percent change in BMD from baseline (ANCOVA), Femoral Neck / Mean percent change in BMD from baseline (ANCOVA), Lumbar Spine / Mean percent change in BMD from baseline (ANCOVA), Total Hip / Mean percent change in BMD from baseline (MMRM), Femoral Neck / Mean percent change in BMD from baseline (MMRM), Lumbar Spine / Mean percent change in BMD from baseline (MMRM), Total Hip: abaloparatide 80 μg or teriparatide 20 μg daily
Experimental: (§1) BMD and bone turnover biomarkers (CTX and P1NP) were also evaluated in all patient groups to compare the effects of abaloparatide versus teriparatide.
(§2) As set forth in the ACTIVE protocol, the primary efficacy endpoint was the number of patients treated with abaloparatide with incident vertebral fractures at the end of treatment as compared to those who received placebo. The pre-specified secondary efficacy parameters included, among other endpoints, reduction in the incidence/risk of non-vertebral fractures; changes in BMD of the spine, hip, and femoral neck from baseline to end of treatment as assessed by DXA and as compared to teriparatide; and the number of hypercalcemic events in abaloparatide treated patients when compared to teriparatide at end of treatment.
Comparative analyses of abaloparatide versus teriparatide were completed on the following BMD secondary endpoints using a Mixed-Effect Model for Repeated Measures (MMRM) method, shown in Table 4 below:
Comparative analyses of the PTHrP analogues abaloparatide and teriparatide were completed on the following BMD secondary endpoints using an ANCOVA approach, shown in Table 5 below: […]

[2] = test system: postmenopausal women with osteoporosis; assay: ACTIVE phase 3 trial: fracture rates and fracture risk reduction, 18 months; type: in vivo, human; settings: abaloparatide 80 μg or teriparatide 20 μg daily SC
Experimental: (§3) The ACTIVE phase 3 fracture prevention trial was conducted for abaloparatide in postmenopausal women with osteoporosis who were otherwise healthy. The enrolled subjects were treated with 80 micrograms (μg) of abaloparatide, a matching placebo, or the approved daily dose of 20 μg of teriparatide for 18 months. The ACTIVE trial evaluated fracture rates, fracture risks, BMD, and bone turnover biomarkers (e.g., CTX and P1NP) in all patient groups.
Fracture risk reduction and hazard ratio (HR) were derived from Kaplan-Meier (KM) curve.
The ACTIVE pivotal Phase 3 fracture prevention trial for the PTHrP analogue abaloparatide, Study BA058-05-003 (see ClinicalTrials.gov), was a randomized, double-blind, placebo-controlled trial in postmenopausal osteoporotic women randomized to receive daily doses of one of the following for 18 months: 80 micrograms (μg) of abaloparatide; a matching placebo; or the approved daily dose of 20 μg of teriparatide. Treatment with abaloparatide at a daily dose of 80 μg or placebo remained blinded to all parties throughout the study. Teriparatide used was a proprietary prefilled drug and device combination that could not be repackaged. Therefore, its identity could not be blinded to treating physicians and patients once use began. Study medication was self-administered daily by subcutaneous injection for a maximum of 18 months. All enrolled patients also received calcium and vitamin D supplementation from the time of enrollment until the end of the treatment period. It was recommended to patients that they also continue these supplements through the one-month follow-up period.
The trial completed enrollment in March 2013 with 2,463 patients at 28 medical centers in 10 countries in the United States, Europe, Latin America, and Asia. The baseline characteristics of the selected patients are detailed in Table 3 below.
The study enrolled otherwise healthy ambulatory women aged 49 to 86 (inclusive) who had been postmenopausal for at least five years, met the study entry criteria, and had provided written informed consent. […] All patients were to be in good general health as determined by medical history, physical examination (including vital signs), and clinical laboratory testing. This study population contained a patient population reflective of the type of severe osteoporosis patients that specialists would be expected to treat in their practices.
as §2

[3] = test system: postmenopausal osteoporotic women; assay: Trabecular bone score (TBS) from spinal DXA, phase 2 trial; type: in vivo, human; settings: 20 μg daily SC
Source text: To assess the effects of the PTHrP analogue abaloparatide on trabecular microarchitecture as indirectly assessed by TBS, the TBS (TBS Calculator v2.2, Medimaps group, Plan-les-Ouates, Geneva, Switzerland) in a blinded fashion at 0, 12, and 24-weeks in 222 postmenopausal osteoporotic women (age 55-85) who were randomized to receive 24-weeks of daily subcutaneous injections of placebo, abaloparatide 20-μg, abaloparatide 40-μg. abaloparatide 80-μg, or teriparatide (TPTD) 20-μg was retrospectively calculated. Between groups differences in the mean percent TBS changes were assessed by unpaired t-test.

[4] = test system: postmenopausal women with osteoporosis; assay: ACTIVE trial: bone turnover markers (CTX, P1NP); type: in vivo, human; settings: at 18 months
Experimental: as §3, §1

[5] = test system: postmenopausal women with osteoporosis; assay: Phase 2 trial: safety, serum calcium, antibody formation; settings: 20 μg daily SC
Experimental: All subjects received supplemental calcium (500-1000 mg) and vitamin D (400-800 IU) per local practice. […] Blood calcium levels were assessed 4-hours and 24-hours after drug administration. Subjects were monitored for adverse events (AEs) and local tolerance at the injection site at each visit. Clinical and laboratory safety parameters, electrocardiograms, were also measured at each study visit.
Efficacy and safety were assessed using all randomized patients who received at least one dose of study drug. Baseline characteristics and safety parameters were summarized using descriptive statistics. […] All hypotheses were tested at the 2-sided 5% significance level.

[6] = test system: postmenopausal women with osteoporosis; assay: ACTIVE trial: adverse events; settings: 18 months; abaloparatide 80 μg (n = 822), teriparatide 20 μg (n = 818)
Experimental: Safety evaluations performed in the ACTIVE trial included physical examinations, vital signs, 12-lead electrocardiograms, or ECGs, clinical laboratory tests and monitoring, and recording of adverse events. Specific safety assessments included pre-dose and post-dose (four hours) determination of serum calcium, determination of creatinine clearance, post-dose ECG assessments at selected visits, and assessments of postural hypotension (60 minutes post-dose) at selected clinic visits.
The ACTIVE trial also evaluated several potential safety measures, including blood calcium levels, orthostatic hypotension, nausea, dizziness, and injection-site reactions.

Structure (SMILES): CC[C@H](C)[C@H](NC(=O)[C@H](CCC(=O)O)NC(=O)[C@H](CO)NC(=O)[C@@H](NC(=O)[C@@H](N)CO)C(C)C)C(=O)N[C@@H](CCC(N)=O)C(=O)N[C@@H](CC(C)C)C(=O)N[C@@H](CCSC)C(=O)N[C@@H](Cc1cnc[nH]1)C(=O)N[C@@H](CC(N)=O)C(=O)N[C@@H](CC(C)C)C(=O)NCC(=O)N[C@@H](CCCCN)C(=O)N[C@@H](Cc1cnc[nH]1)C(=O)N[C@@H](CC(C)C)C(=O)N[C@@H](CC(N)=O)C(=O)N[C@@H](CO)C(=O)N[C@@H](CCSC)C(=O)N[C@@H](CCC(=O)O)C(=O)N[C@@H](CCCN=C(N)N)C(=O)N[C@H](C(=O)N[C@@H](CCC(=O)O)C(=O)N[C@@H](Cc1c[nH]c2ccccc12)C(=O)N[C@@H](CC(C)C)C(=O)N[C@@H](CCCN=C(N)N)C(=O)N[C@@H](CCCCN)C(=O)N[C@@H](CCCCN)C(=O)N[C@@H](CC(C)C)C(=O)N[C@@H](CCC(N)=O)C(=O)N[C@@H](CC(=O)O)C(=O)N[C@H](C(=O)N[C@@H](Cc1cnc[nH]1)C(=O)N[C@@H](CC(N)=O)C(=O)N[C@@H](Cc1ccccc1)C(=O)O)C(C)C)C(C)C [teriparatide, hPTH(1-34)]
- Mean percent change in BMD from baseline (ANCOVA), Femoral Neck ([1]; 6 mo): 0.80%*
- Mean percent change in BMD from baseline (ANCOVA), Lumbar Spine ([1]; 6 mo): 4.84%*
- Mean percent change in BMD from baseline (ANCOVA), Total Hip ([1]; 6 mo): 1.33%*
- Mean percent change in BMD from baseline (MMRM), Femoral Neck ([1]; 6 mo): 0.87%*
- Mean percent change in BMD from baseline (MMRM), Lumbar Spine ([1]; 6 mo): 5.25%*
- Mean percent change in BMD from baseline (MMRM), Total Hip ([1]; 6 mo): 1.44%*
- Mean percent change in BMD from baseline (ANCOVA), Femoral Neck ([1]; 12 mo): 1.41%*
- Mean percent change in BMD from baseline (ANCOVA), Lumbar Spine ([1]; 12 mo): 7.40%*
- Mean percent change in BMD from baseline (ANCOVA), Total Hip ([1]; 12 mo): 2.03%*
- Mean percent change in BMD from baseline (MMRM), Femoral Neck ([1]; 12 mo): 1.54%*
- Mean percent change in BMD from baseline (MMRM), Lumbar Spine ([1]; 12 mo): 8.28%*
- Mean percent change in BMD from baseline (MMRM), Total Hip ([1]; 12 mo): 2.29%*
- Subjects with increased BMD of >3% at all three sites (lumbar spine, total hip, femoral neck) ([1]; 12 months): 19.8%
- Mean percent change in BMD from baseline (ANCOVA), Femoral Neck ([1]; 18 mo): 2.26%*
- Mean percent change in BMD from baseline (ANCOVA), Lumbar Spine ([1]; 18 mo): 9.12%*
- Mean percent change in BMD from baseline (ANCOVA), Total Hip ([1]; 18 mo): 2.81%*
- Mean percent change in BMD from baseline (MMRM), Femoral Neck ([1]; 18 mo): 2.66%*
- Mean percent change in BMD from baseline (MMRM), Lumbar Spine ([1]; 18 mo): 10.49%*
- Mean percent change in BMD from baseline (MMRM), Total Hip ([1]; 18 mo): 3.26%*
- Subjects with increased BMD of >3% at all three sites (lumbar spine, total hip, femoral neck) ([1]; 18 months): 32.0%
- Subjects with increased BMD of >3% at all three sites (lumbar spine, total hip, femoral neck) ([1]; month 6): 6.5%
- Fracture Rate, incident clinical fractures [2]: 4.3%
- Fracture Rate, incident non-vertebral fractures [2]: 2.9%
- Fracture Rate, major osteoporotic fractures [2]: 2.8%
- Fracture Rate, wrist [2]: 2.1%
- Fracture Risk Reduction v. PBO, incident clinical fractures [2]: 29%
- Fracture Risk Reduction v. PBO, incident non-vertebral fractures [2]: 28%
- Fracture Risk Reduction v. PBO, major osteoporotic fractures [2]: 33%
- Fracture Risk Reduction v. PBO, wrist [2]: −13%
- Fracture rate, new vertebral fractures (excluding worsening) [2]: 0.84%
- Reduction of new vertebral fractures (excluding worsening) as compared to placebo [2]: 80%
- Fracture Risk Reduction v. PBO, incident clinical fractures ([2]; listed as TPTD): 29%
- Fracture Risk Reduction v. PBO, incident non-vertebral fractures ([2]; listed as TPTD): 28%
- Fracture Risk Reduction v. PBO, major osteoporotic fractures ([2]; listed as TPTD): 33%
- Fracture Risk Reduction v. PBO, incident non-vertebral fractures ([2]; listed as Teriparatide): 28%
- TBS mean percent change ([3]; 12 weeks): +1.5%
- TBS mean percent change ([3]; 24 weeks): +2.6%
- CTX level compared to placebo [4]: elevated levels compared to placebo
- Highest serum calcium value obtained by any subject ([5]; 4-hours post-dose): 12.6 mg/dL
- Patients with serum calcium levels ≧10.5 mg/dL ([5]; 4-hours post-dose): 40%
- Patients with serum calcium levels ≧10.5 mg/dL ([5]; 24-hours after the last injection): 16%
- Highest serum calcium value obtained by any patient ([5]; 24-hours post-dose): 11.2 mg/dL
- Dizziness ([5]; 24 weeks): 4%
- Incidence of headache ([5]; 24 weeks): 13%
- Patients discontinued due to AEs ([5]; 24 weeks): 4%
- Proportion of patients that experienced TEAEs ([5]; 24 weeks): 78%
- TEAEs possibly or probably related to study treatment ([5]; 24 weeks): 29%
- Treatment-related TEAEs ([5]; extension to 48 weeks): 21%
- AE: Arthralgia [6]: 8.6%
- AE: Back pain [6]: 7.2%^‡
- AE: Constipation [6]: 4.2%
- AE: Dizziness [6]: 7.3%
- AE: Headache [6]: 6.2%
- AE: Hypercalcemia (serum albumin-corrected calcium value ≧10.7 mg/dL) [6]: 6.37%^†
- AE: Hypercalciuria [6]: 12.5%^‡
- AE: Hypertension [6]: 5.0%
- AE: Influenza [6]: 4.2%
- AE: Nasopharyngitis [6]: 6.5%
- AE: Nausea [6]: 5.1%^‡
- AE: Pain in extremity [6]: 5.1%
- AE: Palpitations [6]: 1.6%^‡
- AE: Upper respiratory tract infection [6]: 8.9%
- AE: Urinary tract infection [6]: 5.0%
